Measurements: article PMC11582173, “Synthesis, cytotoxicity, anti-inflammatory, anti-metastatic and anti-oxidant activities of novel chalcones incorporating 2-phenoxy-N-arylacetamide and thiophene moieties: induction of apoptosis in MCF7 and HEP2 cells” (Naunyn-Schmiedeberg's Archives of Pharmacology, 2024)

Assays:
AKT1 gene = assay: Real-time PCR, AKT1 gene expression; assay type: cell-based, human; conditions: relative to untreated control (1)
Description: The expression level of the following six genes (Ki-67, Survivin, Interleukin-1 beta (IL-1B), Interleukin-6 (IL-6), Cyclooxygenase-2 (COX-2) and protein kinase B (AKT1)) was determined in MCF7 and HEP2 treated with the IC50 of compound 5c. The untreated cells were used as a negative control for comparison purposes. […] Ki-67 is a popular proliferation marker for human tumor cells. […] Survivin is an inhibitor of apoptotic protein (IAP) family member, which is essential for cell division. The lowering of the expression of survivin inhibited tumor development, triggered apoptosis, and made tumor cells more susceptible to radiation and chemotherapy (Albadari and Li [2023]). […] IL-1B is a pleiotropic mediator of inflammation, which is produced in response to a variety of stressors (Aarreberg et al. [2019]). […] IL-6 is a pro-inflammatory cytokine that plays a significant role in the proliferation and differentiation of human cells. It promotes the production of numerous proteins involved in acute inflammation (Uciechowski and Dempke [2020]). […]
The expression level of the following six genes (Ki-67, survivin, AKT1, IL-6, COX2, and IL-1B) was examined using real-time polymerase chain reaction (qPCR) (Mohamed et al. [2023a]). […] The cycle threshold (Ct) was determined automatically. […]

[1] = system: human colorectal carcinoma (HCT116) cells; assay: SRB cytotoxic assay, HCT116; assay type: cell-based; conditions: HCT-116, single dose 100 µg/mL, 48 h, read-out: %Inhibition at100 µg/mL HCT116
Description: All the prepared compounds were screened at a concentration of 100 µg/mL against six different human cell lines: human laryngeal carcinoma (HEP2), human colorectal carcinoma (HCT116), human breast carcinoma (MCF7), human Lung carcinoma (A549), human liver carcinoma (HEPG2), and normal African Green monkey kidney cell line (VERO). Doxorubicin was used as a positive control for comparison purposes.
The human laryngeal carcinoma (HEP2), colorectal carcinoma (HCT116), breast carcinoma (MCF7), Lung carcinoma (A549), liver carcinoma (HEPG2), and normal African Green monkey kidney cell line (VERO) were purchased from American Tissue Culture Collection (Rockville, MD, USA). The cells were treated for 48 h with a single dose (100 µg/mL) of all the tested chalcones. […] In brief, the cells were seeded in a 96-well microtiter plate at a concentration of 5×10^3 cells/well in 100 µL fresh RPMI-1640 medium and left to attach to the plates for 24 h. Then, cells were incubated with 100 μL of different concentrations (50, 25, 12.5, 6.25, and 0.0 µg/mL) of 5c in triplicate at 37 °C for 48 h. After that, the cells were fixed with 10 µL cold 100% Trichloroacetic acid (TCA) for 1h at 4 °C. The wells were then washed 1 time with distilled water using (automatic Tecan washer, Germany) and stained for 30 min at room temperature with 50 µL 0.4% SRB dissolved in 1% acetic acid. The plates were air-dried and the dye was solubilized with 100 µl/well of 1M tris base (pH 10.5) for 5 min. The optical density (O.D.) of each well was measured spectrophotometrically at 570 nm with an ELISA microplate reader (Sunrise Tecan reader, Germany) with automatic shaking for 30 seconds before reading. The mean background absorbance was subtracted automatically and mean values for each drug concentration were calculated. The percentage of cell survival was calculated as follows: Survival fraction= O.D. (treated cells)/ O.D. (control cells) (Bhat et al. [2023]).

COc1ccc(NC(=O)COc2ccc(C=CC(=O)c3cccs3)cc2)cc1 [Compound 5c, N-(4-Methoxyphenyl)-2-(4-(3-oxo-3-(thiophen-2-yl)prop-1-en-1-yl)phenoxy)acetamide]
AKT1 expression folding (AKT1 gene; HEP2 cells treated with IC50 of 5c): 0.381±0.011 fold | AKT1 expression folding (AKT1 gene; MCF7 cells treated with IC50 of 5c): 0.402±0.068 fold | inhibition at 100 µg/mL [1]: 41.9 ± 1.8%
